Literature values in US20080200434A1, “Chemical Target-Binding Compositions” (priority 2006, published 2008).
pKd: −log10 of the molar value.

Assays:
[1] = chronic exposure (Hubbard, S. A. 1998)
[2] = aqueous association with glucose; Lorand and Edwards 1959

## OB(O)O [boric acid]
[1]
  no observed adverse effect level: 9-43 mg boron/kg/day

## OB(O)c1ccccc1 [phenylboronic acid]
[2]
  pKd: 2.04
